Measured values from patent publication US12102685B2, “Immodulator peptides covalently modified with small molecules” (priority 2020, dated 2024).
Marks after values point to notes of the source that are not given here. Peptide text beside a SMILES is read from it.

What was measured:
[1] = Iron binding of separately labeled peptides (x2E e); conditions: each peptide labeled separately; IM3 = 100; ferric iron
Experimental: (§1) Experiments were conducted by the procedure described above. Ferric iron-charged NTA-coated 96-well plates were used as described. 1 ug/well immodulator peptide complexed to Alexa-488-labeled streptavidin in PBS buffer was added (60 min at room temperature). The plate was washed and counted in a standard fluorometer (excitation/emission: 485/525 nm). The results (fluorescence) show improved iron-binding by the three peptides extended C-terminally by the AVD, (dA)VD, and FVS tripeptides. **p<0.01 vs IM3 control IM3: 200±29; IM4: 45±37**; IM5: 130±77; IM3AVD: 434±29**; IM3dAVD: 418±28**; IM3FVS: 371±33** • (c) Competition assay. The same procedure was used as the preceding experiment, except that 375 ng/well labeled IM3 peptide was used, plus 10× of the indicated unlabeled peptide. ‘No competing peptide’ control value was set to 100. *p<0.05 vs “no peptide” control Competing Peptide/Fluorescence • None: 100±38; IM4: 125±26; IM3: 63±27*; IM5: 40±14*; IM3AVD: 10±28* • (d) Competition assay. The same procedure was used as the preceding experiment, except that labeled IM3AVD peptide was used. **p<0.01 vs “no competing peptide” control • None: 100±9; IM4: 144±44; IM3: 35±16**; IM5: 30±19**; IM3AVD: 9±19** • (e) The same procedure was used as the preceding experiment, except that each peptide was labeled with Alexa-488-labeled streptavidin in PBS buffer and used separately. Binding to IM3 was set to =100. *p<0.05, **p<0.01 vs IM3 control. (Labeled Peptide/Fluorescence) IM1: 1.8±0.4**; IM2: 3.0±1.8**; IM3: 100.0±16.8; IM4: 7.2±1.7*; IM5: 86.7±6.4; IM6: 85.9±14.9; IM3AVD:137.7±11.8*; IM3dAVD:147.4±22.9*; IM3FVS: 101.5±10.5.

[2] = Strength of binding to iron, plate assay (x2E b); conditions: 1 ug/well peptide complexed to Alexa-488-streptavidin; ferric iron
Experimental: Immodulator peptides were extended C-terminally by three amino acids, to include a valine residue that is highly conserved in the “thyroglobulin type 1 motif”. The reasoning behind this attempt is that a longer conserved sequence might lead to a tighter fold overall, which might in turn result in increased metal-binding avidity. • (b) Strength of binding to iron was evaluated by plate assay.
as §1

[3] = Iron-binding competition assay with labeled IM3 (x2E c); conditions: 375 ng/well labeled IM3 plus 10x unlabeled peptide; no competing peptide = 100
Experimental: as §1

[4] = Iron-binding competition assay with labeled IM3AVD (x2E d); conditions: labeled IM3AVD plus 10x unlabeled peptide; no competing peptide = 100
Experimental: as §1

A375 cells = assay: A375 cell viability, CellTiterGlo (x10A); format: cell-based; conditions: 72 hours
Experimental: Immune modulation functions of immodulator peptides have great potential untility in the field of cancer. A375 cell line was obtained from American Type Culture Collection (ATCC). They were grown in a T-75 flask in DMEM Medium containing 10% fetal bovine serum and penicillin-streptomycin at 37° C. in a humidified, 5% CO2 incubator. Cells ([…], 2,000 cells/well) were plated in a 96-well plate and incubated overnight at 37° C. in a humidified, 5% CO2 incubator. Next day, […] of compounds were added (quadruplicate wells). After 72 hour incubation with the compound, cell viability was measured in a luminometer after the addition of […] CellTiterGlo reagent (Promega Inc, Madison, WI) as recommended by the manufacturer.
Experiment x10A. Anti-cancer activity of immodulator peptides on A375 cells. A 96-well plate was seeded with 2,000 A375 cells per well in DMEM medium containing 10% FBS and PenStrep. After 24 hrs at 37 deg C., compounds and peptides were added (each treatment done in quadruplicate). After a further 72 hours incubation, 100 uL/well of CTG assay reagent purchased from Promega Inc. (Madison, WI) was added. Plate was read after 10 minutes, as recommended by the manufacturer. Peptides were added at 2 uM. The results of this experiment are shown below, expressed as percent survival ofA375 cells.

fluorescence of labeled peptide [1]: 137.7±11.8
fluorescence (iron binding) [2]: 434±29
fluorescence of labeled IM3 with competing peptide [3]: 10±28
fluorescence of labeled IM3AVD with competing peptide [4]: 9±19
Compound: CC(C)[C@H](NC(=O)[C@H](C)NC(=O)[C@H](Cc1c[nH]c2ccccc12)NC(=O)[C@H](CS)NC(=O)[C@H](Cc1ccccc1)NC(=O)CNC(=O)[C@H](CCCNC(=N)N)NC(=O)[C@H](CCCCN)NC(=O)[C@H](CCCNC(=N)N)NC(=O)CNC(=O)[C@H](CCCCN)NC(=O)[C@H](CO)NC(=O)[C@@H]1CCCN1C(=O)[C@H](CCCNC(=N)N)NC(=O)[C@H](CS)NC(=O)[C@H](CCC(N)=O)NC(=O)[C@H](CCCCN)NC(=O)[C@H](CCCCN)NC(=O)[C@H](CCCCN)NC(=O)[C@H](Cc1ccc(O)cc1)NC(=O)[C@H](Cc1ccccc1)NC(=O)CNC(=O)[C@H](CCCCN)NC(=O)[C@@H](N)CCCCN)C(=O)N[C@@H](CC(=O)O)C(=O)O [IM3AVD] (H-KKGFYKKKQCRPSKGRKRGFCWAVD-OH; N-terminus and C-terminus assumed)
percent survival of A375 cells (A375 cells; peptide 2 uM + Kin1400 4 uM (RIG-I agonist)): 12.5** percent
percent survival of A375 cells (A375 cells; peptide 2 uM, Buffer): 96.0%
